Assay results reported in patent US11471478B2, “Use of cyclodextrins in diseases and disorders involving phospholipid dysregulation” (priority 2017, dated 2022).
Where “and” joins values, the source holds several entries; their conditions need not be identical. Identical values can stand only once.

Experiments:
[1] = system: MDA-MB 231 and MCF-7 human breast epithelial cell lines; test: Wound healing / gap closure migration assay; type: cell-based; details: for inhibition of migration, 1 mM HP-α-CD versus 2 mM HP-β-CD: MDA-MB-231 and MCF-7
Method: Published results have shown that β-CD inhibits human MDA-MB 231 cell migration (Guerra F S, Sampaio LdS, et al. (2016) Translational Medicine Communications 1:3). This inhibition was attributed to the ability of β-CD to “deplete cholesterol”. β-CD, however, depletes also phospholipids. […] Cells were cultured in 24-well culture plates (Cytoselect CBA-120, 0.9 mm wound healing/gap closure migration assay) for 24 h with wound healing insert in place. Cells were then treated for 2 h with HP-β-CD, HP-α-CD, or control. Protocol: Warm up the 24-well plate (CBA-120, Cell BioLabs Inc.) with 0.9 mm CytoSelect Wound Healing Inserts at room temperature for 10 min. Using sterile forceps, orient the desired number of inserts in the plate wells with their “wound field” aligned in the same direction. […] Add 500 μL of cell suspension to each well by carefully inserting the pipette tip through the open end at the top of the insert. For optimal cell dispersion, add 250 μL of cell suspension to either side of the open ends at the top of the insert. Incubate cells in a cell culture incubator for 12-24 hours. Carefully remove the insert from the well to begin the wound healing assay. Use sterile forceps to grab and lift the insert slowly from the plate well. Slowly aspirate and discard the media from the wells. Wash wells with media to remove dead cells and debris. Finally, add media to wells to keep cells hydrated. Repeat wash if wells still have debris or unattached cells. When washing is complete, add media with FBS and/or compounds to continue cell culture and wound healing process. Agents that inhibit or stimulate cell migration can be added directly to the wells. Incubate cells in a cell culture incubator (2 hours) and then wash cells with PBS and then add fresh media without compounds. Incubate 12-24 hours before wash and fixing. Remove the fixation solution and add 400 μL of Cell Stain Solution to each well. Allow the stain to incubate with the cells for 15 minutes at room temperature. Aspirate and discard the solution. Carefully wash each stained well 3× with deionized water. Discard washes and allow cells to dry at room temperature. Cells that migrated into the wounded area or protruded from the border of the wound were visualized and photographed under an inverted microscope. Determine the surface area of the defined wound area: Total Surface Area=0.9 mm×length. Determine the surface area of the migrated cells into the wound area: Migrated Cell Surface Area=length of cell migration (mm)×2× length. Percent Closure (%)=Migrated Cell Surface Area/Total Surface Area×100 (see FIG. 36)

[2] = system: MDA-MB-231 breast cancer cells; test: NSG mice injected with human MDA-MB-231 breast cancer cells; type: in vivo
Method: NSG mice (NOD.Cg-Prkdcscid Il2rgtm1Wjl/SzJ, strain #005557 (10 wk old) were obtained from Jackson Laboratories (Bar Harbor, Me.), housed in isolated quarters, and fed with autoclaved water and food.
An MDA-MB-231 cell line was obtained (ATCC) and kept frozen in liquid nitrogen. Upon start of culture, cells were thawed (1.5 min in 37° C. water) and transferred to DMEM/F-12 supplemented with 5% FBS, 2 mM L-glutamine, 1 mM sodium pyruvate, and 0.02 mM non-essential amino acids. Cells were grown to several millions in 60 mm dishes at 70-80% confluence. Before injection, cells were briefly rinsed twice in PBS followed by Versene (EDTA, Invitrogen) and placed on ice with excess phosphate-buffered saline and phenol red-free matrigel basement membrane extract to a concentration of about 15 mg/mL matrigel. 100 μL cell mixture (20,000 cells or saline only) were injected into the lactiferous duct of the 3rd or 4th mammary glands under brief isofluorane anesthesia. Groups of 15 mice each were injected IP with 800 mg/kg of HP-α-CD, HP-β-CD per week (over four days, Mon, Tue, Thu, Fri), or saline (control) for six weeks. Size of the primary tumor was measured weekly.
Breast tissue were palpated and measured twice a week with a micro-metric analytical device scaled to 1 mm precision. Mice were weighed weekly on a digital scale (0.1 g precision).
At the end of the study period, mice were anaesthetized with isofluorane with 1× phosphate-buffered saline (PBS) and subsequently with 4% formaldehyde in PBS. Tissue from lung and liver were removed and fixated in formalin for microscopic examination. Metastases were visualized and counted by tissue embedding in paraffin and sectioning with immunohistochemistry and histological stain (H&E) and immunostained with anti-HLA antibody. After blocking for 1 h with BSA (5%, frac V), the anti-HLA was incubated at 4° C. overnight, washed for 1 h in PBS, then incubated with biotinylated anti-mouse IgG for 1 h at room temperature. After washing with PBS, metastases were detected on the slide using Envision (Dako).
After blood collection, whole blood samples were centrifuged (at 10,000 m/s^2 for 15 min and then at 100,000 m/s^2 for 10 min), and plasma was isolated. The samples were stored at −80° C. until analysis.
Prior to analysis (30 min), samples and assay reagents were equilibrated to room temperature. The samples were run at a 1:4 dilution and quantified in duplicate using a multi-plex mouse panel for quantification of IL-1β, IL-18, IL-6, IL-8, IL-17A, and GM-CSF (Bio-Plex Pro assays, Bio-Rad Laboratories) on a Luminex Bio-Plex 200 System (Bio-Rad Laboratories).

HTT mice = HTT mice (R6/2), bodyweight; type: in vivo; details: 8 wk old HTT mice, over 5 wk
Source text: (§1) ALS mice SOD1 G93A strain (B6SJL-Tg(SOD1*G93A)1Gur/J strain #002726, 10 wk old, and HTT mice (B6CBA-Tg(HDexon1)62Gpb/33; strain #006494 HTT: R6/2, 8 wk old), were obtained from Jackson Laboratories (Bar Harbor, Me.), housed in standard housing with controlled ambient conditions and provided with water and food at libitum.

SOD1 mice = test: ALS mice SOD1 G93A, bodyweight; type: in vivo; details: untreated mice began to lose bodyweight after 21 days
Source text: as §1

[3] = Randomized n-of-1 human PK/PD study: FPLC of morning urine after oral HP-α-CD preparations; details: in vivo
Method: Urine samples (5-10 mL) were pipetted into culture tubes and then frozen for 30 min and samples were then lyophilized for 48-72 h, sealed and stored at −80° C. Phospholipids were extracted from urine samples after reconstitution, with chloroform (CHCl3) and methanol (3:1), and filtered through glass wool. The eluent was washed with 1 M KCl with 0.01% sodium azide. The wash was centrifuged at 3000 g for 30 min and CHCl3 layer transferred to fresh tube and evaporated at 60° C. under nitrogen. Phospholipid extracts and standards were digested in 10 M H2SO4 with 0.16 Ca(NO3)2 and 30% H2O2 and heated for 25 min at 180° C. […] These were vortexed and heated at 35° C. for 30 min. All samples were analyzed in triplicate.
This was coupled to a Beckman Ultra SI column using an isocratic elution profile along a mobile phase of acetonitrile-methanol-phosphoric acid solvent (100:10:1.8) at a flow rate of 1.0 mL/min at RT. The lyophilized samples were resuspended in a hexane-propanol-phenolphthalene mix (3:1:0.1) before injection.
The standard curves (FIG. 43) were generated using DiPalmitoyl-PC in the range of 0.65-32 μM phosphate equivalence. Percentage efficiency of isolation was determined through a comparison of the extraction recovery of total phosphate from normal urine spiked with known amount of synthetic PL with a parallel PL sample digested and assayed without extraction.

erythrocytes [4] = details: cited from earlier work; for IC50: read-out: hemolytic IC50
SwN2a cells = details: cited from earlier work
Npc1−/− mice = details: mouse, in vivo; cited from earlier work
whole blood = details: cited from earlier work
BBB = details: cited from earlier work
[5] = system: heterogeneous human epithelial colorectal adenocarcinoma (Caco-2) cells; details: cited from earlier work
rats [6] = details: s.c. single dose 0.100 g/kg; cited from earlier work
[7] = cited from earlier work
[8] = cited from earlier work; remark: listed apart in the source
erythrocytes [9] = details: cited from earlier work
[10] = cited from earlier work; remark: listed apart in the source
[11] = 2.1% α-CD added to Western diet; cited from earlier work
[12] = cited from earlier work; remark: listed apart in the source
[13] = system: fibroblasts of lysosomal storage diseases; details: about 6 mM α-CD, about 8 mM HP-β-CD; cited from earlier work
rats [14] = details: cited from earlier work
rats [15] = details: cited from earlier work; remark: listed apart in the source
rats [16] = details: 1 g/kg daily; cited from earlier work
mice/rats = details: in vivo; cited from earlier work
keratinocytes = details: cited from earlier work
[17] = IP 800 mg/kg per week for six weeks
[18] = u-statistics for multivariate data

2-hydroxypropyl-alpha-cyclodextrin [HP-α-CD]
cell migration / wound closure, concentration dependence ([1]; 2 h treatment, MDA-MB 231 and MCF-7): migration decreased with higher concentration
effect on migration, HP-α-CD versus HP-β-CD ([1]; MDA-MB 231 and MCF-7): stronger effect on migration than HP-β-CD
effect on migration, HP-α-CD versus HP-β-CD ([1]; MDA-MB 231 and MCF-7, listed as HPαCD): twice as effective as HP-β-CD
inhibition of migration, 1 mM HP-α-CD versus 2 mM HP-β-CD [1]: superior to inhibition at 2 mM HP-β-CD
inhibition of migration, 1 mM HP-α-CD versus 2 mM HP-β-CD ([1]; listed as HPαCD): more effective than 2 mM HPβCD
Tumor volume, median [2, 17]: 356 mm3
effect on tumor volume [2, 17]: more effective than HP-β-CD
plasma cytokines (IL-1β, IL-18, IL-6, IL-8, IL-17A, GM-CSF) versus Vehicle ([2]; conventional 0.05 level): not significant only in IL-6
mice that did not develop lung metastases ([2]; groups of 15 mice): 5 mice
mice who died ([2]; groups of 15 mice): one
comprehensive analysis of all six plasma cytokine markers [2, 18]: more effective than HP-β-CD
lung and liver metastases overall [2, 18]: more effective
decline in bodyweight (HTT mice): reduced decline in bodyweight
bodyweight growth (SOD1 mice): continued to grow for at least two more weeks
lysophospholipids in urine (fractions 9 and 10, LPC) [3]: higher than in all other groups
IC50 (erythrocytes [4]): > 100 mM
level of membrane cholesterol (SwN2a cells): reduced
levels of Aβ42 (SwN2a cells): dramatically lowered
cholesterol accumulation (Npc1−/− mice): reduces cholesterol accumulation, albeit not as effectively as HP-β-CD
whole blood TD50 (whole blood): 360 mM/L
BBB breakdown (BBB): 2.5 mM
toxicity on the BBB model (BBB): similarly safe
cytotoxicity [5]: less cytotoxic than α-CD

OC[C@H]1O[C@@H]2O[C@H]3[C@H](O)[C@@H](O)[C@@H](O[C@H]4[C@H](O)[C@@H](O)[C@@H](O[C@H]5[C@H](O)[C@@H](O)[C@@H](O[C@H]6[C@H](O)[C@@H](O)[C@@H](O[C@H]7[C@H](O)[C@@H](O)[C@@H](O[C@H]1[C@H](O)[C@H]2O)O[C@@H]7CO)O[C@@H]6CO)O[C@@H]5CO)O[C@@H]4CO)O[C@@H]3CO [α-CD, alpha-cyclodextrin]
Nephrosis (light microscopy) (rats [6]): 0.100 no changes
half-life (t1/2) after i.v. in rats ([7]; i.v.): 25 min
oral absorption in rats ([7]; oral): 2-3%
excreted after i.v. unchanged in urine [8]: ~90%
hemolytic activity (erythrocytes [4]; comparison between cyclodextrins): lower than that of both β-CD and HP-β-CD
IC50 (erythrocytes [4]): 16 mM
reduction of phospholipids (erythrocytes [9]; 10 mM, FIG. 3): 30%
extraction of cholesterol (erythrocytes [9]): negligible even at hemolytic concentrations
found in urine within 6-8 h post oral administration [10]: 1.6% and 2.0%
decrease of plasma phospholipids [11]: 17.5%
Permitted Daily Exposure (PDE) threshold, parenteral ([12]; CHMP 2014): 0.02 mg/kg/day
Permitted Daily Exposure (PDE) threshold, parenteral, revised ([12]; Oct. 9, 2017): 200 mg/kg/day
reduction of lysosomal storage [13]: more effective in reducing lysosomal storage than about 8 mM HP-β-CD
LD50 with bolus i.v. injections (rats [14]): 1000 mg/kg
Nephrosis/Death (rats [15]; s.c. daily doses 0.100 g/kg): 0.100 no nephrosis
Nephrosis (rats [15]; s.c. daily doses 1.000 g/kg): 1.000 all had severe nephrosis,
Death (rats [15]; s.c. up to 7 daily doses of 1.000 g/kg): one rat died (after 2 days)
whole blood TD50 (whole blood): 11 mM/L
i.v. toxicity, 1 g/kg daily (rats [16]): 1 died @ 2 d
LD50 i.v./i.p. in mice/rats (mice/rats): 500 to 1000 mg/kg
Transport across BBB (BBB; 2 h, 0.5 mM): 21.5 (0.5 mM) %
toxicity on the BBB model (BBB): more toxic
caspase-dependent apoptotic cell death (keratinocytes): not
